Reference: US20200323797A1, “Treatment of Obesity-related Conditions” (INSTITUTO DE MEDICINA MOLECULAR, priority 2017, published 2020)
“And” between values parts separate entries of the source, which are not always exact repeats. Equal entries are not always repeated. Structures can show the parent of a compound that is named as a salt.

Key:
[1] = tested on: SCG sympathetic neurons from C57BL/6 mice; assay: Whole cell patch-clamp electrophysiology of sympathetic neurons
[2] = tested on: C57BL/6 mice; assay: Faecal output and plasma triglycerides during HFD feeding; format: in vivo, mouse
Procedure: (§1) Blood glucose was measured using a glucometer (Accu-Check, Roche). Analysis of Insulin, Triglycerides, Glycerol and FFA levels in plasma as performed using Mouse Ultrasensitive Insulin ELISA (Alpco), Triglyceride Quantification Kit (Abcam), Free Glycerol Reagent (Sigma) and Glycerol Standard Solution (Sigma), and Free Fatty Acid Quantification Kit (MAK044, Sigma), respectively according to manufacturer's instructions.
24 h faecal output was collected and weighed. The faeces were washed with 1×PBS and total triglyceride content was extracted by homogenization and boiling, for 2 cycles of 5 min, in 5% NP-40. Triglyceride content was measured using Triglyceride Quantification Kit (Abcam), according to manufacturer's instructions, and normalized to the weight of total faecal output.

[3] = tested on: C57BL/6 mice; assay: Thermoregulation studies (thermography, rectal probe) during DIO; format: in vivo, mouse; conditions: 2 h post-injection
Procedure: All measurements were done in ad libitum fed mice 2 h post-injections. Rectal temperature was measured with an electronic thermometer (Precision). BAT and Tail thermographic pictures were taken using a Compact-Infrared-Thermal-Imaging-Camera (FLIR; West Mailing) and FLIR-Tools-Software (FLIR; West Mailing) to quantify local temperatures.

[4] = tested on: C57BL/6 mice; assay: Acute behaviour and WAT NE content after single IP injection; format: in vivo, mouse
Procedure: NE levels were determined with an NE ELISA kit (Labor Diagnostika Nord GmbH). Tissues were homogenized and sonicated in homogenization buffer (1 N HCl, 1 mM EDTA, 4 mM Sodium metabisulfite), and cellular debris were pelleted by centrifugation at 20,000 g for 10 min at 4° C.). All tissue samples were normalized to total tissue protein concentration.
(§2) After 3 weeks of HFD exposure and treatment, mice were either acclimated to tracking cages for 1 week before starting the 72 h locomotion measurements using the LabMaster tracking system (TSE Systems; Bad Homburg); or filmed for 20-30 min, with a ZEISS optics camera, 1 h post injection inside their normal housing cage, for assessment of total distance traveled. Footage-records were filtered using the video editor Avidemux (Avidemux 2.7.1) and 10 or 15 min distance computations were quantified using the TrackMate tracking plugin from Fiji (Fiji; Wisconsin-Madinson).

[5] = tested on: LSL-DTR (Control) and TH-cre; LSL-DTR (Symp) mice; assay: High fat diet challenge in Control and sympathectomized (Symp) mice, 6 weeks; format: in vivo, mouse; conditions: for BW gain: 6 weeks HFD, 0.12 mol/kg daily IP; for Locomotor activity, total distance traveled: 10-min video-tracking, 1 h post-injection; for Plasma Glycerol levels: 2 h post-injection; for Food intake: HFD
Procedure: For detailed characterization refer to Pereira et al. 2017(52). Briefly, TH-cre; LSL-DTR mice were used for this experiment and LSL-DTR mice were used as controls. PEGylated Diphtheria Toxin (PEGyDT) was administered once a day for 8 consecutive days (25 ng/g of BW, IP injections). All following experiments were performed at least 24 h post the last injection.
as §1
[…]. Tissues were homogenized and sonicated in homogenization buffer (1 N HCl, 1 mM EDTA, 4 mM Sodium metabisulfite), and cellular debris were pelleted by centrifugation at 20,000 g for 10 min at 4° C.). All tissue samples were normalized to total tissue protein concentration.
as §2

[6] = tested on: C57BL/6 mice; assay: Diet induced obesity, 10 weeks HFD with chronic treatment; format: in vivo, mouse
[7] = tested on: superior cervical ganglia sympathetic neurons from GCaMP3+ mice; assay: Intracellular calcium imaging of ACh-stimulated sympathetic neurons; format: cell-based, mouse; conditions: 15 μM drug for 24 h; 10 μM ACh for 40 s
Procedure: For Ca^2+ experiments, sympathetic neurons obtained from GCaMP3^+ mice. […] At 7 DIV, coverslips with sympathetic neurons from GCaMP3^+ mice were mounted on an inverted microscope with epifluorescent optics (Axiovert 135TV, Zeiss) equipped with a xenon lamp (located at a Lambda DG-4 (Sutter Instrument) and band-pass filter of 450-490 nm wavelengths. Ca^2+ measurements were performed at 37° C., as reported in Jacob et al., 2014(33) Throughout the experiments the Ach was applied focally through a drug filled micropipette placed under visual guidance over a single neuronal cell. Drug release was performed by focal pressure (10 psi for 40 s) through a Toohey Spritzer pressure System Ile (Toohey Company). […] Images were obtained every 250 ms by exciting the preparations at 450-490 nm and the emission wavelength was set to 510 nm. Neurons were imaged with a cooled CCD camera (Photometrics CoolSNAP fx), processed and analysed using the software MetaFluor (Universal laging, West Chester, Pa.). Ca^2+ levels were recorded at the cell body of neurons (manually defined over the cell profile) in the field of view and variations were estimated as changes of the fluorescence signal over the baseline (ΔF/F0=[(Fpost−Frest)/Frest]).

[8] = target: T1, Slc6a2 (Mus musculus, UniProt O55192); assay: NE uptake by SAMs in SCG explant cultures, SLC6A2 blocker; format: cell-based; conditions: 100 nM Nisoxetine hydrochloride
T1 construct: CD45.2+F4/80+ cells isolated from the SCG of either B6 or Slc6a2−/− mice; from tissue; sorted CD45+F4/80+ sympathetic neuron-associated macrophages (sympathetic neurons are also present)
T1 sequence (O55192 whole entry): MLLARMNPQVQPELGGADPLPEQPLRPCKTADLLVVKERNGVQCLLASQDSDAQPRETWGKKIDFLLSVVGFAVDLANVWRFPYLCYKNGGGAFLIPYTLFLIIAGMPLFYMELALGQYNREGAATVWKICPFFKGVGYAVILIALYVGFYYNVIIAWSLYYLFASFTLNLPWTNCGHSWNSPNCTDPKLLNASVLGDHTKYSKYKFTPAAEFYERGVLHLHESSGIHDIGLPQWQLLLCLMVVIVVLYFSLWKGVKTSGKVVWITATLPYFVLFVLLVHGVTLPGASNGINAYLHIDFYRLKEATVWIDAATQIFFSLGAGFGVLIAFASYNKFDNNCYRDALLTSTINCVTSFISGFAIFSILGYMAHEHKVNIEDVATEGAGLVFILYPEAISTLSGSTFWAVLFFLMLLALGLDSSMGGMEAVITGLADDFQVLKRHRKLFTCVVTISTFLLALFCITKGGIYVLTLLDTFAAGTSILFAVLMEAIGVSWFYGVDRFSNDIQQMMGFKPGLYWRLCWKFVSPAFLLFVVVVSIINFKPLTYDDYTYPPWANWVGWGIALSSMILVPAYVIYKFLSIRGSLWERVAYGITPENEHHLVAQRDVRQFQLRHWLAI

[9] = target: T2, MAOa (Mus musculus, UniProt Q64133); assay: NE content of SAMs and medium in SCG explant cultures, MAOA blocker; format: cell-based; conditions: ACh-activated SCG explants; 100 μM Clorgyline, 2 hours
T2 construct: CD45.2+F4/80+ cells isolated from the SCG of either B6 or Slc6a2−/− mice; from tissue; sorted CD45+F4/80+ SAMs (neuronal MAOa may also contribute to NE in the medium)
T2 sequence (Q64133 1-526): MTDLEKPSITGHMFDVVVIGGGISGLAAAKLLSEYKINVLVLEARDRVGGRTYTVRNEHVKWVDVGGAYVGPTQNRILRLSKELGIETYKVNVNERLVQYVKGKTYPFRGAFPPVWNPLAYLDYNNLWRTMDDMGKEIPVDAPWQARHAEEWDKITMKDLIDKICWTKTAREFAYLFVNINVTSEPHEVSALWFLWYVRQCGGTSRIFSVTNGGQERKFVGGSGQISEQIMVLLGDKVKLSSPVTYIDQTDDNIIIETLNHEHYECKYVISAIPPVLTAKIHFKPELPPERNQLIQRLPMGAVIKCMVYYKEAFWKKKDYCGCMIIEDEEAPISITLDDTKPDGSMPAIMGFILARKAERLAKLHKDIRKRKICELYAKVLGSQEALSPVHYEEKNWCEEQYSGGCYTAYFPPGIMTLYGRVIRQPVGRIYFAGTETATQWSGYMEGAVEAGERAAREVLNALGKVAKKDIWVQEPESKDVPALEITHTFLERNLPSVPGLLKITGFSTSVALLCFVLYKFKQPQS
Procedure: SCG were removed from 4-6 weeks old mice under a stereomicroscope and placed in Dulbecco's Modified Eagle's medium (DMEM, Invitrogen, Carlsbad, Calif., U.S.A.). Ganglia were cleaned from the surrounding tissue capsule and transferred into 8-well Tissue Culture Chambers (Sarstedt, Nümbrecht, Germany) that were previously coated with poly-D-lysine (Sigma/Aldrich, Steinheim, Germany) in accordance to the manufacturers instructions. Ganglia were then covered with 5 μl of Matrigel (BD Bioscience, San Jose, Calif., U.S.A.) and incubated for 7 min at 37° C. DMEM without phenol red (Invitrogen) supplemented with 10% fetal bovine serum (Invitrogen), 2 mM L-Glutamine (Biowest, Nuaillé, France) and nerve growth factor (Sigma/Aldrich) were subsequently added. 12 SCG explants cultures were prepared per condition. SCG ganglia were cultured for minimum 24 hours prior to further manipulation. […]
Depolarization of sympathetic neurons in TH-Cre/LSLChR2-YFP explant cultures were performed on a Yokogawa CSUX Spinning Disk confocal using the 488 nm laser line and pointing at the region of interest (ROI) for 200 μs. […] NE in the SCG explant culture medium and sorted CD45, F4/80-double positive cells was determined with NE ELISA kit (Labor Diagnostika Nord GmbH, Nordhorn, Germany, cat # BA E-5200). […]

[10] = fed-state, 2 h post-injection without access to food

CC(N)Cc1ccccc1 (centres unmarked) [AMPH, Amphetamine]
Resting membrane potential [1]: −35.70±1.02 mV | Changes in resting membrane potential ([1]; AMPH vs Vehicle, FIGS. 5A, B): no significant changes | Maximum firing frequency ([1]; current-clamp mode): 37.60±1.07 Hz and 41.00±1.43 Hz | Total 24 h faecal output ([2]; HFD feeding): 0.48 ± 0.03 g | Faecal triglycerides (TGs) levels ([2]; HFD feeding, per mg of faeces): 1.89 ± 0.15 nmol/mg | Plasma TGs levels [2, 10]: 3.48 ± 0.01 µmol/mL | Core body temperature (rectal probe) ([3]; fourth week of HFD): 37.94±0.10 °C | Tail temperature at the tail base (thermography) ([3]; fourth week of HFD): 30.07±0.54 °C | BAT temperature (thermography) ([3]; HFD fed mice, fourth week): 38.25±0.25 °C | Locomotion, total distance traveled ([4]; 15-min video-tracking, 1 h post-injection): 70.45±7.54 m | NE content in iWAT ([4]; 2 h post-injection): 9.69 ± 1.49 ng/mg | NE content in gWAT ([4]; 2 h post-injection, per total tissue protein): 6.63 ± 0.58 ng/mg | Food intake ([4]; 24 h post-injection, 0.12 mol/kg IP): 2.57 ± 0.15 g | NE content in inguinal WAT ([5]; Control mice): 2.58±0.28 ng/mg of total tissue protein | BW gain ([5]; Control mice): 12.67±1.79% | Locomotor activity, total distance traveled ([5]; Control mice): 21.88±1.09 m | Plasma Glycerol levels ([5]; Control mice): 89.70 ± 10.20 µg/mL | Food intake ([5]; Control mice): 2.08 ± 0.25 g/day | NE content in inguinal WAT ([5]; Symp mice): 1.51 ± 0.20 ng/mg | BW gain ([5]; Symp mice): 39.19±4.54% | Locomotor activity, total distance traveled ([5]; Symp mice): 24.30±2.88 m | Plasma Glycerol levels ([5]; Symp mice): 59.07 ± 7.83 µg/mL | Food intake ([5]; Symp mice): 2.00 ± 0.12 g/day | Locomotor activity ([6]; (a.u.), fourth week of HFD): 53.72±5.27 counts/day | NE levels in the liver ([6]; HFD fed, per total protein): 1.327 ± 0.262 ng/mg | NE levels in the muscle ([6]; HFD fed, per total protein): 0.493 ± 0.030 ng/mg | iWAT adipocyte size ([6]; after 10 weeks of HFD): 1152.0±58.9 μm^2 | iWAT weight, % of total BW ([6]; after 10 weeks of HFD): 0.92±0.13% | NE content in iWAT ([6]; after 10 weeks of HFD and treatment, per total protein): 1.166 ± 0.263 ng/mg | BW gain ([6]; after 10 weeks of HFD, 0.12 mol/kg daily IP): 20.49±2.10% | Daily food intake ([6]; during HFD and treatment): 2.17 ± 0.09 g/day | Circulating plasma insulin levels [6, 10]: 0.582 ± 0.020 ng/mL | Plasma Free Fatty Acids [6, 10]: 0.766 ± 0.043 µmol/mL | Plasma Glycerol [6, 10]: 11.771 ± 1.249 µmol/mL | TGs content in muscle ([6]; per total protein): 11.54 ± 0.17 µmol/mg | TGs content in the liver ([6]; per total protein): 16.23 ± 1.95 µmol/mg | ACh-induced intracellular [Ca2+] increase, ΔF/F0 [7]: 1.71±0.05

CNCCC(Oc1ccccc1OC)c1ccccc1 (centres unmarked) [Nisoxetine, Nisoxetine hydrochloride]
NE accumulation in SAMs ([8]; ACh-activated SCG explants, 2 hours): prevented NE accumulation in SAMs | Uptake of NE by SAMs (NE content in CD45+F4/80+ cells) ([8]; optogenetic stimulation of SCG explants): prevented

C#CCN(C)CCCOc1ccc(Cl)cc1Cl [clorgyline, Clorgyline]
Intracellular NE levels in SAMs [9]: nearly double intracellular NE levels | NE levels in medium [9]: increased NE levels in medium
